Experimental data published in patent US8664221B2 (Santen Pharmaceutical Co., Ltd., priority 2008, dated 2014).

Key:
[1] = tested on: IL-6 production induced by lipopolysaccharide (LPS) in human corneal epithelial cells (HCE-T); assay: Inhibition of LPS-induced IL-6 production in human corneal epithelial cells (GR agonist activity); assay type: cell-based; conditions: Corneal epithelial cell, 10 μL of 100 μM test compound solution per well, 4 hours incubation, efficacy relative to DEX
Method: In order to evaluate a GR agonist activity of the present compound, the inhibitory effects on the IL-6 production induced by lipopolysaccharide (LPS) in human corneal epithelial cells. IL-6 levels in the conditioned medium were measured using the HTRF human IL-6 Kit (boehringer-Ingelheim, Cat No. 62IL6PEB), and the procedure was carried out according to the protocol attached to the kit. Hereinafter, the specific method will be described.
LPS solution: After LPS was dissolved in phosphate buffer solution (hereinafter referred to as PBS(−)), the resulting solution was diluted with 10% FBS-DMEM/F12 medium, whereby a 1 μg/mL LPS solution was prepared.
After a test compound was dissolved in dimethylsulfoxide (hereinafter referred to as DMSO), the resulting solution was diluted with 10% FBS-DMEM/F12 medium, whereby a 100 μM test compound solution was prepared. A 100 μM DEX solution was prepared by the same method, and the inhibitory ratio of IL-6 production of DEX was evaluated to use for calculating efficacy (% DEX).
Used cell: SV40-immortalized human corneal epithelial cells (HCE-T) (RIKEN)
1) HCE-T cells were harvested, and seeded at 2.0×10^4 cells/0.1 mL/well in a 96-well plate.
2) After incubation overnight, the medium was removed and a 80 μL of new 10% FBS-DMEM/Ham's F12 medium was added into each well.
3) A 10 μL of test compounds solution was added into each well.
4) A 10 μL of LPS solution was added into each well.
5) As a negative control, a 10 μL of 10% FBS-DMEM/Ham's F12 medium was added into each well instead of a test compound solution and a LPS solution.
6) As a positive control, a 10 μL of 10% FBS-DMEM/Ham's F12 medium containing 1% DMSO was added into each well instead of a test compound solution.
7) After 4 hours incubation, supernatants were collected and IL-6 levels in the supernatants were quantitated using the HTRF human IL-6 Kit.
8) The inhibition ratio of IL-6 production (%) was calculated according to the following equation.
The inhibition ratio of IL-6 production (%) was calculated according to the following equation. The inhibition ratio of IL-6 production (%)=100×{1−(IL-6 level in each group−mean value of IL-6 level in negative control)/(mean value of IL-6 level in positive control−mean value of IL-6 level in negative control)} (%)
Furthermore, the inhibition ratio of IL-6 production (efficacy (% DEX)) was also calculated according to the following equation. Efficacy(% DEX)=100×{(mean value of IL-6 inhibition in compound-treated group)/(mean value of IL-6 inhibition in DEX-treated group)} (%) (Results and Discussion)

[2] = tested on: allergic conjunctivitis model in mice; assay: Inhibitory effect on vascular hyper-permeability in allergic conjunctivitis model; assay type: in vivo; conditions: male BALB/c mice, ovalbumin-sensitized; 1% (W/V) suspension instilled 15 min, 1 hr and 3 hrs before ovalbumin; Evans blue dye leakage; mean of 6 eyes
Method: In order to evaluate anti-allergic effect of the present compound, the inhibitory effect on the vascular hyper-permeability in allergic conjunctivitis model in mice was examined. This effect was calculated based on dye leakages of vehicle-treated group (control group) and test compound-treated group.
By adding 0.5% polysorbate 80/saline to the test compound, a 1% (W/V) test compound suspension was prepared.
1) Ovalbumin absorbed on aluminum hydroxide gel was dissolved in saline (20 μg ovalbumin/mL), and male BALB/c mice, 6 weeks old, were actively sensitized to the antigen by intraperitoneal injections of 500 μL of it.
2) On the 6th day from sensitization, sensitized mice were boosted by additional intraperitoneal injections of 500 μL ovalbumin absorbed on aluminum hydroxide gel (20 μg ovalbumin/mL).
3) On the 11th day, 12th day, 13th day, 14th day and 15th day from the first sensitization, allergic conjunctivitis were induced by instillations to the right eyes of the mice of […] of 50% glycerol solution containing 15% (W/V) ovalbumin.
4) […] of test compound suspension per eye was instilled to the right eye of the above mice 15 min, 1 hr and 3 hrs before ovalbumin instillation (three times) on the 15th day from sensitization. In vehicle-treated group (control group), the mice were instilled with 0.5% polysorbate 80/saline in substitution for test compound suspension.
5) Just before ovalbumin instillation on the 15th day from sensitization, all animals received a tail intravenous injection of 0.1% Evans blue dye. The right periocular tissues of the mice, which were the leaked parts of dye, were collected 30 min after ovalbumin instillation. The dye was extracted from the tissues with the dye extraction liquid. Then the absorbance of the dye extract was measured. The dye leakage was calculated from the absorbance value, and the inhibition ratio of the vascular hyper-permeability of test compound-treated group was calculated according to calculation equation 1. The inhibition ratio of the vascular hyper-permeability of test compound-treated group (%)=(1−Ax/Ao)×100 (Calculation Equation 1) • Ao: Dye leakage in vehicle-treated group (control group) • Ax: Dye leakage in test compound-treated group (Test Results and Discussion)

[3] = tested on: choroidal neovascularization (CNV) model in rats; assay: Laser induced choroidal neovascularization model; assay type: in vivo; conditions: Brown Norway male rats; 1% (w/v) eye drops four times a day or 20 mg/mL subconjunctival injection (route not given); fluorescein angiography 7 days after laser; mean of 7-8 eyes
Method: The choroidal neovascularization (CNV) model in rats is known as one of the popular methods for evaluating the CNV inhibitory effect of drugs. This method is reported in Graefe's Arch. Cli. Exp. Ophthalmol., 235, 313-319 (1997). According to this method, the CNV examinations were performed to evaluate the CNV inhibitory effect of test compounds by comparing the incidence rates of CNV in vehicle group (control group) with test compound-treated groups.
For eye drop administration, a 1% (w/v) test compound suspension was prepared by adding 0.5% polysorbate 80/saline to the test compound. For subconjunctival injection, a 20 mg/mL test compound suspension was prepared by adding 0.5% hydrogenated castor oil/saline to the test compound.
1) Brown Norway male rats (7-8 weeks) were anesthetized with intramuscular injection (1 mL/kg) of the mixed solution (5% ketamine HCl:2% xylazine HCl=7:1).
2) After mydriasis using tropicamide phenylephrine hydrochloride eye drops (trade name Mydrin P), laser photocoagulation of bruch's membrane in rats was performed with krypton laser photocoagulation machine. Laser irradiation was performed at 8 points per eye avoiding thick retinal blood vessels in ocular fundus and focusing on the depth of retina. The conditions were 100 μm spot size, 100 mW power, 0.1 second duration.
3) After laser photocoagulation, photographs of ocular fundus were taken and the laser photocoagulation (laser irradiation) points were confirmed.
1) In case of eye drops administration, a test compound suspension was administrated four times a day from laser irradiation day (the 1st day) to the 8th day. In case of subconjunctival injection, a 50 μL test compound suspension was injected into conjunctivae just after laser irradiation.
2) In vehicle group (control group), 0.5% polysorbate 80/saline or 0.5% hydrogenated castor oil/saline was used instead of a test compound suspension. And the test was performed according to the method 1).
1) 7 days after laser irradiation, 0.1 mL of 10% fluorescein was injected into rat tail vein and fluorescein angiography was performed.
2) When the fluorescent leakage was not detected in the fluorescent angiography, the spot was judged to be a negative spot. When the fluorescent leakage was detected, the spot was judged to be a positive spot. When the fluorescent leakage was detected as a little leakage, two spots were counted as one positive spot.
3) The neovascular incidence rate was calculated according to the equation 1. According to the equation 2, the ratio of neovascular incidence rate in test compound group to vehicle group was calculated. Neovascular incidence rate (%)=(Positive spots/all spots)×100 (Equation 1) Angiogenic inhibition ratio in test compound group (%)=(1−Ax/Ao)×100 (Equation 2)
Ao: Neovascular incidence rate in vehicle group (control group)
Ax: Neovascular incidence rate in test compound group

[4] = tested on: carrageenan-induced paw edema model in rats; assay: Carrageenan-induced paw edema model; assay type: in vivo; conditions: female Lewis rat; 10 mg/kg oral, 30 minutes before carrageenan; paw volume 3 hr after injection; read-out: Inhibition ratio of paw edema (%)
Method: The inhibitory effect for paw edema using carrageenan-induced paw edema model in rats is known as one of the general methods for testing the inhibitory effect on inflammation on the joint and the like. Therefore, the inhibitory effect of the present compound for paw edema was carried out, the inhibition rate of paw edema was calculated, and then the anti-inflammatory effect of the present compound was evaluated based on the rate. The concrete method of the test is described below.
A 2 mg/mL test compound suspension was prepared by adding 1% methyl cellulose (base) to the test compound.
1) The weight and right hind paw volume of female Lewis rat (8˜10 weeks) were measured before drug administration.
2) The test compound suspension was administered at 10 mg/kg to the test compound group. Meanwhile, 1% methyl cellulose was administered orally at 5 mL/kg to the sham-operation group and vehicle group (control group).
3) After 30 minutes from oral administration, 0.1 mL of a 1% w/v carrageenan/distilled water solution was subcutaneously injected into right foot pad. 0.1 mL of distilled water was subcutaneously injected for sham-operation group.
4) The right hind paw volume was measured 3 hr after injection of carrageenan or distilled water.
(Formulation Concerning Estimation of Drug Activity) The increase ratio of paw volume (%)=100×(right hind paw volume 3 hr after injection of carrageenan or distilled water (mL)−right hind paw volume before the test compound administration (mL))/right hind paw volume before the test compound administration (mL) (Calculation Equation 1) The inhibition ratio of paw edema (%)=100−100×(the increase ratio of paw volume of each test compound group (%)−the increase ratio of paw volume of sham-operation group (%))/(the increase of paw volume of vehicle group (%)−the increase of paw volume of sham-operation group (%)) (Calculation Equation 2) (Test Results and Discussion)

SMILES	Emax [1]	The inhibition ratio of the vascular hyper-permeability (%) [2]	Angiogenic inhibition ratio (%) [3]	inhibition in vivo at 10 mg/kg [4]
COc1cc(OS(C)(=O)=O)ccc1-c1ccc2c(c1COc1cc(F)ccc1C)N(C)C(=O)C(C)(C)N2 [Compound No. 1-1, 8-(5-Fluoro-2-methylphenoxymethyl)-7-(2-methoxy-4-methylsulfonyloxyphenyl)-1,3,3-trimethyl-3,4-dihydro-1H-quinoxalin-2-one]	92%	36%	31%	–
COc1cc(OS(=O)(=O)C2CC2)ccc1-c1ccc2c(c1COc1cc(F)ccc1C)N(C)C(=O)C(C)(C)N2 [Compound No. 1-13, 7-(4-Cyclopropylsulfonyloxy-2-methoxyphenyl)-8-(5-fluoro-2-methyl-phenoxymethyl)-1,3,3-trimethyl-3,4-dihydro-1H-quinoxalin-2-one]	100%	–	38%	67%
CCCS(=O)(=O)Oc1ccc(-c2ccc3c(c2COc2cc([N+](=O)[O-])ccc2C)N(C)C(=O)C(C)(C)N3)c(OC)c1 [Compound No. 1-38, 7-(2-Methoxy-4-propylsulfonyloxyphenyl)-8-(2-methyl-5-nitrophenoxy-methyl)-1,3,3-trimethyl-3,4-dihydro-1H-quinoxalin-2-one]	94%	–	33%	50%
COc1cc(OS(=O)(=O)C2CCCC2)ccc1-c1ccc2c(c1CNc1cc(F)ccc1C)N(C)C(=O)C(C)(C)N2 [Compound No. 1-43, 7-(4-cyclopentylsulfonyloxy-2-methoxyphenyl)-8-(5-fluoro-2-methyl-phenylaminomethyl)-1,3,3-trimethyl-3,4-dihydro-1H-quinoxalin-2-one]	82%	–	18%	–
COc1ccccc1NCc1c(-c2ccc(OS(=O)(=O)C3CC3)cc2OC)ccc2c1N(C)C(=O)C(C)(C)N2 [Compound No. 2-2, 7-(4-Cyclopropylsulfonyloxy-2-methoxyphenyl)-8-(2-methoxy-phenylaminomethyl)-1,3,3-trimethyl-3,4-dihydro-1H-quinoxalin-2-one]	86%	–	41%	51%
